Measured values published in ChEMBL document CHEMBL5120826, “Effects of β-lapachone and β-nor-lapachone on multidrug efflux transporters and biofilms of Candida glabrata” (Bioorg Med Chem, 2022).
Converted amounts (≈) assume the structure as drawn. The source made the active and inactive calls. No cut-off for these calls is given here.

Assays:
[1] = system: Saccharomyces cerevisiae; assay: Indifferent antifungal activity against fluconazole resistant Saccharomyces cerevisiae overexpressing CgCdr1p transporter assessed as reduction in fungal growth incubated for 48 hrs in presence of fluconazole by checkboard assay based microplate reader analysis; format: functional
[2] = system: Saccharomyces cerevisiae; assay: Antifungal activity against fluconazole resistant Saccharomyces cerevisiae overexpressing CgCdr2p transporter assessed as reduction in fungal growth incubated for 48 hrs by checkboard assay based microplate reader analysis; format: functional
[3] = system: Saccharomyces cerevisiae; assay: Indifferent antifungal activity against fluconazole resistant Saccharomyces cerevisiae overexpressing CgCdr1p transporter assessed as fractional inhibitory concentration in presence of fluconazole incubated for 48 hrs by checkboard assay based microplate reader analysis; format: functional
[4] = system: Saccharomyces cerevisiae; assay: Indifferent antifungal activity against fluconazole resistant Saccharomyces cerevisiae overexpressing CgCdr1p transporter assessed as reduction in fungal growth incubated for 48 hrs in presence of lapachone by checkboard assay based microplate reader analysis; format: functional
[5] = system: Saccharomyces cerevisiae; assay: Indifferent antifungal activity against fluconazole resistant Saccharomyces cerevisiae overexpressing CgCdr1p transporter assessed as fractional inhibitory concentration index incubated for 48 hrs by checkboard assay based microplate reader analysis; format: functional
[6] = system: Saccharomyces cerevisiae; assay: Indifferent antifungal activity against fluconazole resistant Saccharomyces cerevisiae overexpressing CgCdr1p transporter assessed as fractional inhibitory concentration incubated for 48 hrs in presence of lapachone by checkboard assay based microplate reader analysis; format: functional
[7] = system: Saccharomyces cerevisiae; assay: Indifferent antifungal activity against fluconazole resistant Saccharomyces cerevisiae overexpressing CgCdr2p transporter assessed as fractional inhibitory concentration index incubated for 48 hrs by checkboard assay based microplate reader analysis; format: functional
[8] = system: Saccharomyces cerevisiae; assay: Indifferent antifungal activity against fluconazole resistant Saccharomyces cerevisiae overexpressing CgCdr2p transporter assessed as fractional inhibitory concentration incubated for 48 hrs in presence of lapachone by checkboard assay based microplate reader analysis; format: functional
[9] = system: Saccharomyces cerevisiae; assay: Antifungal activity against fluconazole resistant Saccharomyces cerevisiae overexpressing CgCdr1p transporter assessed as reduction in fungal growth incubated for 48 hrs by checkboard assay based microplate reader analysis; format: functional
[10] = system: Saccharomyces cerevisiae; assay: Indifferent antifungal activity against fluconazole resistant Saccharomyces cerevisiae overexpressing CgCdr2p transporter assessed as reduction in fungal growth incubated for 48 hrs in presence of lapachone by checkboard assay based microplate reader analysis; format: functional
[11] = system: Saccharomyces cerevisiae; assay: Indifferent antifungal activity against fluconazole resistant Saccharomyces cerevisiae overexpressing CgCdr2p transporter assessed as fractional inhibitory concentration in presence of fluconazole incubated for 48 hrs by checkboard assay based microplate reader analysis; format: functional
[12] = system: Saccharomyces cerevisiae; assay: Indifferent antifungal activity against fluconazole resistant Saccharomyces cerevisiae overexpressing CgCdr2p transporter assessed as reduction in fungal growth incubated for 48 hrs in presence of fluconazole by checkboard assay based microplate reader analysis; format: functional
[13] = system: Saccharomyces cerevisiae; assay: Antifungal activity against fluconazole resistant Saccharomyces cerevisiae overexpressing CgCdr1p transporter assessed as reduction in fungal growth at lower concentration incubated for 48 hrs by serial dilution method; format: functional, organism-based

SMILES	MIC [1] [µg/mL]	MIC [2] [µg/mL]	FIC [3] [µg/mL]	MIC [4] [µg/mL]	fractional inhibitory concentration index (FICI) [5]	FIC [6] [µg/mL]	fractional inhibitory concentration index (FICI) [7]	FIC [8] [µg/mL]	MIC [9] [µg/mL]	MIC [10] [µg/mL]	FIC [11] [µg/mL]	MIC [12] [µg/mL]	Activity [13]
CC1(C)CC2=C(O1)C(=O)c1ccccc1C2=O	500	12.5 (≈ 54.8 µM)	1	> 100	2	1	2	1	> 100	12.5	1	62.5	
CC1(C)CCC2=C(O1)C(=O)c1ccccc1C2=O [ALPHA-LAPACHONE]	500	> 62.5	1	> 100	2	1	2	1	> 100	> 100	1	62.5	
OC(Cn1cncn1)(Cn1cncn1)c1ccc(F)cc1F													Active
